Reference: patent US12350269B2 (Alexion Pharmaceuticals, Inc., priority 2015, dated 2025)
Like-named read-outs stand apart in the source and are kept apart here.

What was measured:
primary CLL cells [1] = assay: Primary CLL cell viability assay (propidium iodide, 72 hours); type: cell-based, human
Protocol: (§1) Isolated CLL cells were cultured in RPMI-1640 with 15% fetal bovine serum (Gibco, Grand Island, NY, USA), penicillin (100 IU), and streptomycin (100 μg/mL), at a density of 1×10^7 cells/mL in the presence or absence of […] CpG, 100 ng/mL CD40L, 10 ng/mL IL-4. Anti-IgM stimulation was conducted with plate-bound anti-IgM (10 μg/mL). CLL cells were stimulated with 10 ng/mL IL-6 (R&D Systems, Minneapolis, MN), to detect the phosphorylation of JAK1/JAK2 (Cell Signaling Technology, Danvers, MA) and STAT3 (Cell Signaling Technology, Danvers, MA, USA).
Ten thousand events in a live cell gate were counted by a FACS LSR2 (BD Biosciences) and the data was normalized to the matched vehicle control for each specimen (100%). IC50 was then generated using the GraphPad Prism 6 program (San Diego, CA, USA).

primary CLL cells [2] = assay: Primary CLL apoptosis (propidium iodide/Annexin V, PARP cleavage); type: cell-based, human
Protocol: as §1

[3] = Phase 1 study: pharmacokinetics following oral dosing; type: in vivo, human
Protocol: Study initiated at 15 mg QD (once daily) and dose-escalated in a 3+3 design with a 28 day safety window. Patients received a single dose on day 1 for 72 hour PK evaluation. Continuous dosing was then initiated on day 4.
A 3+3 dose escalation study with 28-day cycles was carried out; the doses studied ranged from 15 mg to 65 mg once daily and up to 45 mg twice daily. Patients received a single dose on day 1 for 72 hour PK evaluation. Continuous dosing was initiated on day 4. 43 patients with CLL/SLL or B cell NHL were dosed. Median age was 67 years (range 23-85) and median prior therapies (tx) was 3 (range 1-8).
Pharmacokinetics (“PK”), pharmacodynamics (“PD”), and safety were monitored. Response was assessed by standard criteria.

SYK [4] = assay: Healthy normal human whole blood assay: B-cell, BCR stimulation, pERK Y204 readout; type: cell-based
[5] = test system: anti-IgM induced signalling pathways; assay: Primary CLL cells: B cell receptor induced signalling (immunoblotting, flow cytometry); type: cell-based; details: primary human CLL cells
Protocol: as §1

[6] = test system: BCR/SYK and cytokine (IL2, IL4, IL6) JAK/STAT signaling; assay: Healthy whole blood ex vivo spiking experiments (summary); type: cell-based, human
Protocol: Human Whole Blood Assays: Inhibition of SYK- and JAK-dependent and independent signaling was determined by stimulating human whole blood with various agonists against BCR and cytokine receptors. 100 μL aliquots of heparinized healthy human whole blood was stimulated as previously described (Coffey et al, J. of Pharm. and Experimental Therapeutics, 351:538-548, 2014), using an 8-point concentration curve to determine IC50's. Signaling and activation responses were determined by Fluorescence-activated cell sorting (“FACS”). For the clinical trial, whole blood samples were collected prior to and after dosing. Percent inhibition was calculated by normalizing to the pre-dose stimulation response.
Plasma concentrations above 2 μM have been safely achieved in cancer patients following once daily oral dosing, while maintaining steady-state Cmin of ˜1 μM.

JAK1/3 [7] = assay: Healthy normal human whole blood assay: T-cell, IL2 stimulation, pSTAT5 Y694 readout; type: cell-based
Zap70 = assay: Healthy normal human whole blood assay: T-cell, TCR stimulation, pERK Y204 readout; type: cell-based
AMPK = assay: Purified kinase assay (Millipore); type: biochemical; details: 300 nM ATP
Solubility = type: physicochemical; details: contemplated to limit dissolution
JAK2 = target: T1, JAK2 (Homo sapiens, UniProt O60674); assay: Purified kinase assay (Millipore); type: biochemical; details: 300 nM ATP
T1 construct: purchased Millipore
T1 sequence (O60674 whole entry): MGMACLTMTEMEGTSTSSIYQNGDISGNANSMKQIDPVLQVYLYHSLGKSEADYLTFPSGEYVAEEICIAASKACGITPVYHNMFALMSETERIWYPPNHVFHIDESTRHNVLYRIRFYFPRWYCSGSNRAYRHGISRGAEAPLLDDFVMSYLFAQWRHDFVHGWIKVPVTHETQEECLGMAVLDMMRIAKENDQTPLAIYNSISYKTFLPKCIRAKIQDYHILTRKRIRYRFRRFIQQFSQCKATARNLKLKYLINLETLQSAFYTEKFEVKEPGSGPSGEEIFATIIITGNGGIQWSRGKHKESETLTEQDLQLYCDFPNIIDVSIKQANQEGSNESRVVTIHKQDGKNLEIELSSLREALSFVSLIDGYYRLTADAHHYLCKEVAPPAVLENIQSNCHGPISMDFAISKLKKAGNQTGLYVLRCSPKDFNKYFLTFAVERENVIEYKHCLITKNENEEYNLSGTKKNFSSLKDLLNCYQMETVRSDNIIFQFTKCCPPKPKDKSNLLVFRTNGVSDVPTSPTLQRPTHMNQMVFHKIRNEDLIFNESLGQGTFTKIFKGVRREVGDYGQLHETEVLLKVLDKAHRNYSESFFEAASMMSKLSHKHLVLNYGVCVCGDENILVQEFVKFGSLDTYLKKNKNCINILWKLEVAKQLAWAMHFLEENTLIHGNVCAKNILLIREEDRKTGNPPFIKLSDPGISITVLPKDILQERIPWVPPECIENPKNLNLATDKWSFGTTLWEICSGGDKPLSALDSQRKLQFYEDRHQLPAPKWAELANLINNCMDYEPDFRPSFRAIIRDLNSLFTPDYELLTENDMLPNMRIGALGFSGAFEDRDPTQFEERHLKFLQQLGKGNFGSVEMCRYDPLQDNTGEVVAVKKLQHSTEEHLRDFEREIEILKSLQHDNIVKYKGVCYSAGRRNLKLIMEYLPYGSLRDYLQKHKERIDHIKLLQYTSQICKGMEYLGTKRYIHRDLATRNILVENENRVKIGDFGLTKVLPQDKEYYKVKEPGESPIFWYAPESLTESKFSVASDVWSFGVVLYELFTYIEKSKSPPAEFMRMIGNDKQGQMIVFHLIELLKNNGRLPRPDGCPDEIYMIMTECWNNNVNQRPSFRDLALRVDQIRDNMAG

15 DLBCL cell lines = assay: DLBCL cell line panel: caspase 3 cleavage and Edu incorporation by FACS; type: cell-based
Protocol: DLBCL Cell Line Viability Assays: Cell lines, purchased from ATCC, were screened using the CellTiter Glo (Promega) assay in 384 well plates using a ten-point concentration response curve to generate IC50's. Each IC50 value is an average of at least four replicate experiments. Subsequent analysis using a FACS based caspase 3 cleavage detection kit (BD Biosciences) and Edu incorporation were performed.
In a panel of 15 cell lines representing both ABC and GCB subtypes, 9 underwent apoptosis and an additional 2 underwent cell cycle arrest.
FIG. 1 and FIG. 2 depicts bar graphs that show the percent inhibition of Edu incorporation and percent induction of caspase 3 cleavage by FACS analysis, respectively.

JAK1/TYK2 = assay: Healthy normal human whole blood assay: Monocytes, IL6 stimulation, pSTAT3 Y705 readout; type: cell-based; details: Monocyte
JAK1/3 [8] = assay: Healthy normal human whole blood assay: T-cell, IL4 stimulation, PSTAT6 Y641 readout; type: cell-based
SYK [9] = assay: Healthy normal human whole blood assay: B-cell, BCR stimulation, CD69 readout; type: cell-based
[10] = test system: BTK^C481S-transfected TMD8 cells; assay: Cell growth of transfected TMD8 cells (Muse Count & Viability); type: cell-based; details: 250 nM, 7 days
Source text: Cell transfection, cell count and viability assay: TMD8 cells were transfected with constructs of WT BTK or BTK^C481S mutants using kit V, Program U-13 on Amaxa Nucleofector, according to the manufacturer's protocols (Amaxa, Cologne, Germany). After transfection, the cells were co-cultured with NKTert cells in a 24-well plate for 24 hrs for recovery.

[11] = test system: ibrutinib-sensitive primary CLL cells; assay: BrdU proliferation assay, primary CLL cells of ibrutinib responders; type: cell-based, human; details: 250 nM, combined stimulation, day 8
[12] = 24 hours, in the presence of ZVAD
[13] = 15 mg/twice daily oral, Table 4, n=28
[14] = 15 mg/twice daily, Table 5, n=43
[15] = 20 mg/twice daily oral, Table 4, n=28
[16] = 20 mg/twice daily, Table 5, n=43
[17] = 45 mg/day oral, PK outlier removed, Table 4, n=28
[18] = 45 mg/twice daily, Table 5, n=43
[19] = 100 mg/day (one patient), Table 5

In the case of CCS(=O)(=O)N1CCN(c2ccc(Nc3ncc(C(N)=O)c(NC4CC4)n3)cc2)CC1 [cerdulatinib, 4-(cyclopropylamino)-2-(4-(4-(ethylsulfonyl)piperazin-1-yl)phenylamino)pyrimidine-5-carboxamide], the “sensitivity of CLL cells with high-risk genetic abnormalities (del (11q), trisomy 12, del(17p)) versus del (13q) or none” value (primary CLL cells [1]) is reported as “more sensitive”, the “sensitivity of CLL cells with unmutated IGHV (N=33) versus mutated IGHV (N=27)” value (primary CLL cells [1]; P=0.0395) is reported as “more sensitive” and the “apoptosis in U-CLL compared to M-CLL and in high versus low CD49d or ZAP70 expression” value (primary CLL cells [2]) is reported as “significantly greater apoptosis”. The “apoptosis with or without IL-4/CD40L support” value (primary CLL cells [2]) was “induced apoptosis in the presence or absence of IL-4/CD40L support”, the “cleavage/activation of caspase 3 and 85 kDa PARP sub-fragment” value (primary CLL cells [2]) was “induce cleavage/activation” and the “apoptosis of CLL cells” value (primary CLL cells [2]; 24 patients, 24, 48 and 72 hours) was “induced apoptosis in a concentration and time dependent manner”. The “anti-apoptotic protein MCL1” value (primary CLL cells [2]; [12]) was “decreased”, the “levels of pro-apoptotic protein NOXA” value (primary CLL cells [2]; [12]) was “increased” and the AUC_tau ([3]; 15 mg/day oral, Table 4, n=28) was 4.5 ± 0.8 µM·h. For the same compound, the “SS Cave” value ([3]; 15 mg/day oral, Table 4, n=28) was 0.19 ± 0.03 µM, the “SS Cmin” value ([3]; 15 mg/day oral, Table 4, n=28) was 0.12 ± 0.04 µM and the T1/2 ([3]; 15 mg/day oral, Table 4, n=28) was 11.5 ± 3.9 h. For the same compound, the AUC_tau ([3]; 15 mg/day, Table 5, n=43) was 4.5 ± 0.8 µM·h, the “SS Cave” value ([3]; 15 mg/day, Table 5, n=43) was 0.19 ± 0.03 µM and the “SS Cmin” value ([3]; 15 mg/day, Table 5, n=43) was 0.12 ± 0.04 µM. The T1/2 ([3]; 15 mg/day, Table 5, n=43) was 11.5 ± 3.9 h, the “SS Cave” value [3, 13] was 0.39 ± 0.11 µM and the “SS Cmin” value [3, 13] was 0.29 ± 0.11 µM. The “SS Cave” value [3, 14] was 0.39 ± 0.11 µM, the “SS Cmin” value [3, 14] was 0.29 ± 0.11 µM and the “SS Cave” value [3, 15] was 0.52 ± 0.09 µM. For the same compound, the “SS Cmin” value [3, 15] was 0.38 ± 0.02 µM, the “SS Cave” value [3, 16] was 0.52 ± 0.09 µM and the “SS Cmin” value [3, 16] was 0.38 ± 0.02 µM. The “SS Cave” value ([3]; 30 mg/day oral, Table 4, n=28) was 0.31 ± 0.12 µM, the “SS Cmin” value ([3]; 30 mg/day oral, Table 4, n=28) was 0.21 ± 0.12 µM and the “SS Cave” value ([3]; 30 mg/day, Table 5, n=43) was 0.31 ± 0.12 µM. For the same compound, the “SS Cmin” value ([3]; 30 mg/day, Table 5, n=43) was 0.21 ± 0.12 µM, the “steady-state Cmin exposure at plateau” value ([3]; 40 mg to 100 mg oral once daily) was “about 0.7 μM” and the “SS Cave” value ([3]; 40 mg/day oral, Table 4, n=28) was 1.14 ± 0.03 µM. The “SS Cmin” value ([3]; 40 mg/day oral, Table 4, n=28) was 0.87 ± 0.07 µM, the “SS Cave” value ([3]; 40 mg/day, Table 5, n=43) was 1.14 ± 0.03 µM and the “SS Cmin” value ([3]; 40 mg/day, Table 5, n=43) was 0.87 ± 0.07 µM. The “SS Cmin” value ([3]; 45 mg BID dose) was “about 1.5 μM”, the Cave ([3]; 45 mg BID, n=20) was 1.4 ± 0.7 µM and the Cmin ([3]; 45 mg BID, n=20) was 1.27 ± 0.6 µM. The AUC_tau [3, 17] was 26.6 ± 13.9 µM·h, the “SS Cave” value [3, 17] was 1.11 ± 0.6 µM and the “SS Cmin” value [3, 17] was 0.82 ± 0.6 µM. The AUC_tau ([3]; 45 mg/day, Table 5, n=43) was 26.6 ± 13.9 µM·h, the “SS Cave” value ([3]; 45 mg/day, Table 5, n=43) was 1.11 ± 0.6 µM and the “SS Cmin” value ([3]; 45 mg/day, Table 5, n=43) was 0.82 ± 0.6 µM. The Cmax ([3]; 45 mg/day, Table 5, n=43, read-out: SS Cmax) was 1690 ± 600 nM, the “SS Cave” value [3, 18] was 1.5 ± 0.45 µM and the “SS Cmin” value [3, 18] was 1.48 ± 0.33 µM. For the same compound, the “SS Cave” value ([3]; 50 mg/day oral, Table 4, n=28) was 1.31 ± 0.41 µM, the “SS Cmin” value ([3]; 50 mg/day oral, Table 4, n=28) was 0.90 ± 0.14 µM and the “SS Cave” value ([3]; 50 mg/day, Table 5, n=43) was 0.99 ± 0.62 µM. The “SS Cmin” value ([3]; 50 mg/day, Table 5, n=43) was 0.79 ± 0.37 µM, the Cmax ([3]; 50 mg/day, Table 5, n=43, read-out: SS Cmax) was 1570 ± 940 nM and the “steady state Cmin” value ([3]; 65 mg dose) was “approximately 1 μM”. The AUC_tau ([3]; 65 mg/day, Table 5, n=43) was 24.2 ± 0.7 µM·h, the “SS Cave” value ([3]; 65 mg/day, Table 5, n=43) was 1.01 ± 0.03 µM and the “SS Cmin” value ([3]; 65 mg/day, Table 5, n=43) was 0.76 ± 0.04 µM. For the same compound, the Cmax ([3]; 65 mg/day, Table 5, n=43, read-out: SS Cmax) was 1670 ± 90 nM, the “SS Cave” value [3, 19] was 0.68 µM and the “SS Cmin” value [3, 19] was 0.37 µM. For the same compound, the “average steady state (SS) Cave” value ([3]; 40-100 mg QD doses) was 1.07 ± 0.44 µM, the “average steady state (SS) Cmin” value ([3]; 40-100 mg QD doses, plateau) was 0.77 ± 0.41 µM and the Cmax ([3]; human, plasma, oral, 40 mg QD, read-out: steady-state concentrations Cmin to Cmax) was 1000 to 2000 nM. For the same compound, the “plasma concentrations safely achieved in cancer patients” value ([3]; once daily oral dosing) was “above 2 μM”, the “steady-state Cmin” value ([3]; once daily oral dosing, cancer patients) was roughly 1 µM and the IC50 (SYK [4]) was 500 nM. The “concentration (achievable in patients) at which BCR and IL-4 mediated signalling was overcome” value [5] was roughly 2.2 µM, the “inhibition at the cellular level and/or in patients for AMPK, JAK2, TBK-1, RSK2, and RSK4” value [6] was “no evidence of inhibition” and the IC50 ([6]; Homo sapiens, healthy whole blood, ex vivo spiking, read-out: IC50's, BCR/SYK and cytokine (IL2, IL4, IL6) JAK/STAT signaling) was 200 to 900 nM. For the same compound, the IC50 (JAK1/3 [7]) was 200 nM, the IC50 (Zap70) was greater than 4 µM and the IC50 (AMPK) was 6 nM. For the same compound, the solubility (Solubility) was “pH-dependent low solubility”, the IC50 (JAK2) was 6 nM and the “activity against DLBCL cell lines” value (15 DLBCL cell lines; 2 μM) was “broadly active”. For the same compound, the “induction of apoptosis in cell lines” value (15 DLBCL cell lines; 2 μM) was “induced apoptosis in the majority of cell lines”, the “additional cell lines that underwent cell cycle arrest” value (15 DLBCL cell lines; panel of 15 cell lines) was 2 and the “number of cell lines that underwent apoptosis” value (15 DLBCL cell lines; panel of 15 cell lines, ABC and GCB subtypes) was 9. The “response of DB, TOLEDO, and RCK8 cell lines” value (15 DLBCL cell lines; three of the 15 cell lines) was “resistant”, the “concentration required to induce apoptosis and/or cell cycle arrest” value (15 DLBCL cell lines; variable, generally observed) was roughly 2 µM and the IC50 (JAK1/TYK2) was 350 nM. The IC50 (JAK1/3 [8]) was 580 nM, the IC50 (SYK [9]) was 100 nM and the cell growth [10] was “effectively blocked”. The “BrdU incorporation (proliferation)” value [11] was “responded equally well”.
